Patent publication US10781224B2, “Bis(oxymethyl)phosphinic acid and biogenic metal salts thereof as regulators of plant growth and development” (priority 2016, dated 2020)

Key:
[1] = tested on: corn (Krasnodar 385 MV variety); assay: Corn seed treatment with BHMPA salts: germinating power; assay type: in vivo
Procedure, shortened: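 Seeds (50 per Petri dish on two layers of filter paper) soaked 1 h in BHMPA or its Ca, Mg, Na, Co, Mn, Cu or Zn salts at 1·10^−6-1·10^−12%, with water controls. Germination energy read on day 4, germination on day 8 (wheat) or day 7 (rice, corn), as % means of four replicates. Germinating power taken as root and sprout length plus wet and dry mass per 100 seedlings.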

[2] = tested on: winter wheat (Kazan 560 variety); assay: Field study: winter wheat seed treatment and spraying, yield and quality of the grain; assay type: in vivo; conditions: for Field germination, % / Grain mass from the main ear / Number of grains in an ear / Viability, % / Yield, dt/ha: winter wheat
Experimental: Field studies were conducted for the BHMPA Mg-salt. The effect of treatment winter wheat seeds (Kazan 560 variety) with BHMPA Mg-salt solutions on the yield and quality of the grain was examined. The field experiment was conducted at a branch of a fallow rotation. The seeds were sowed on Sep. 1, 2015, in an area covering 1.7 hectares of the experimental field located at the experimental base of Tatarstan Research Institute of Agriculture. For comparison, the seeds were treated with the BHMPA Mg-salt solution and the known growth-regulator Melaphen at the same concentrations, optimum for Melaphen.
The experiment was conducted for the following variants: • 1. Control (no seed treatment); • 2. Seed treatment with the BHMPA Mg-salt solution at a 1·10^−7% concentration; • 3. Seed treatment with the BHMPA Mg-salt solution at a 1·10^−7% concentration+spraying with the BHMPA Mg-salt solution at a 1·10^−8% concentration upon vegetation during spring tillering and earing phases; • 4. Seed treatment with the growth regulator Melaphen at a 1·10^−7% concentration; • 5. Seed treatment with Melaphen at a 1·10^−7% concentration and spraying with Melaphen at a 1·10^−8% concentration upon vegetation during spring tillering and earing phases.
The seeds were treated with the experimental compounds together with a seed disinfectant at a rate of 10 ml/T. The vegetating plants were treated at a rate of 5 ml/ha. Identical field operations appropriate for that zone as well as plant protection measures against weeds and disease, were applied in all cases.
Results of field experiments with BHMPA Mg-salt as the main growth-regulating component of said pre-sowing seed treatment combined with additional treatment of winter wheat plants with other claimed BHMPA salts, are presented in Table XXXV.

[3] = corn seeds, solution concentration 1 · 10^−6%, magnesium salt of BHMPA
[4] = corn seeds, solution concentration 1 · 10^−7%, magnesium salt of BHMPA
[5] = corn seeds, solution concentration 1 · 10^−8%, magnesium salt of BHMPA
[6] = corn seeds, solution concentration 1 · 10^−9%, magnesium salt of BHMPA
[7] = corn seeds, solution concentration 1 · 10^−10%, magnesium salt of BHMPA
[8] = corn seeds, solution concentration 1 · 10^−11%, magnesium salt of BHMPA
[9] = corn seeds, solution concentration 1 · 10^−12%, magnesium salt of BHMPA
[10] = corn, over the tested concentrations
[11] = seed treatment 1 · 10^−7% + spraying plants with the same substance 1 · 10^−8%

O=P([O-])(CO)CO.O=P([O-])(CO)CO.[Mg+2] [Mg-salt, Magnesium BHMPA Salt]
optimum concentration for treating corn seeds before sowing ([1]; corn): 1·10^−9%
Length, root [1, 3]: 6.4 cm
Length, root, + % to control [1, 3]: 21%
Length, sprout [1, 3]: 2.9 cm
Length, sprout, + % to control [1, 3]: −12%
Mass, dry, root [1, 3]: 1.60 g/100 plantlings
Mass, dry, root, + % to control [1, 3]: 9.5%
Mass, dry, sprout [1, 3]: 1.07 g/100 plantlings
Mass, dry, sprout, + % to control [1, 3]: 11%
Mass, wet, root [1, 3]: 10.29 g/100 plantlings
Mass, wet, root, + % to control [1, 3]: 17%
Mass, wet, sprout [1, 3]: 7.17 g/100 plantlings
Mass, wet, sprout, + % to control [1, 3]: 12%
Length, root [1, 4]: 7.0 cm
Length, root, + % to control [1, 4]: 32%
Length, sprout [1, 4]: 3.3 cm
Length, sprout, + % to control [1, 4]: 0%
Mass, dry, root [1, 4]: 1.81 g/100 plantlings
Mass, dry, root, + % to control [1, 4]: 24%
Mass, dry, sprout [1, 4]: 1.12 g/100 plantlings
Mass, dry, sprout, + % to control [1, 4]: 17%
Mass, wet, root [1, 4]: 10.86 g/100 plantlings
Mass, wet, root, + % to control [1, 4]: 24%
Mass, wet, sprout [1, 4]: 7.93 g/100 plantlings
Mass, wet, sprout, + % to control [1, 4]: 23.5%
Length, root [1, 5]: 8.5 cm
Length, root, + % to control [1, 5]: 60%
Length, sprout [1, 5]: 3.5 cm
Length, sprout, + % to control [1, 5]: 6%
Mass, dry, root [1, 5]: 1.91 g/100 plantlings
Mass, dry, root, + % to control [1, 5]: 31%
Mass, dry, sprout [1, 5]: 1.19 g/100 plantlings
Mass, dry, sprout, + % to control [1, 5]: 24%
Mass, wet, root [1, 5]: 11.64 g/100 plantlings
Mass, wet, root, + % to control [1, 5]: 33%
Mass, wet, sprout [1, 5]: 8.89 g/100 plantlings
Mass, wet, sprout, + % to control [1, 5]: 38%
Length, root [1, 6]: 9.1 cm
Length, sprout [1, 6]: 3.8 cm
Mass, dry, root [1, 6]: 2.02 g/100 plantlings
Mass, dry, root, + % to control [1, 6]: 38%
Mass, dry, sprout [1, 6]: 1.27 g/100 plantlings
Mass, dry, sprout, + % to control [1, 6]: 32%
Mass, wet, root [1, 6]: 12.42 g/100 plantlings
Mass, wet, root, + % to control [1, 6]: 42%
Mass, wet, sprout [1, 6]: 10.35 g/100 plantlings
Mass, wet, sprout, + % to control [1, 6]: 61%
Length, root [1, 7]: 8.3 cm
Length, root, + % to control [1, 7]: 57%
Length, sprout [1, 7]: 3.6 cm
Length, sprout, + % to control [1, 7]: 9%
Mass, dry, root [1, 7]: 1.96 g/100 plantlings
Mass, dry, root, + % to control [1, 7]: 34%
Mass, dry, sprout [1, 7]: 1.20 g/100 plantlings
Mass, dry, sprout, + % to control [1, 7]: 25%
Mass, wet, root [1, 7]: 11.86 g/100 plantlings
Mass, wet, root, + % to control [1, 7]: 35%
Mass, wet, sprout [1, 7]: 8.62 g/100 plantlings
Mass, wet, sprout, + % to control [1, 7]: 34%
Length, root [1, 8]: 8.1 cm
Length, root, + % to control [1, 8]: 53%
Length, sprout [1, 8]: 3.0 cm
Length, sprout, + % to control [1, 8]: −9%
Mass, dry, root [1, 8]: 1.81 g/100 plantlings
Mass, dry, root, + % to control [1, 8]: 24%
Mass, dry, sprout [1, 8]: 1.10 g/100 plantlings
Mass, dry, sprout, + % to control [1, 8]: 14.5%
Mass, wet, root [1, 8]: 10.04 g/100 plantlings
Mass, wet, root, + % to control [1, 8]: 14%
Mass, wet, sprout [1, 8]: 8.18 g/100 plantlings
Mass, wet, sprout, + % to control [1, 8]: 27%
Length, root [1, 9]: 7.8 cm
Length, root, + % to control [1, 9]: 47%
Length, sprout [1, 9]: 2.8 cm
Length, sprout, + % to control [1, 9]: −15%
Mass, dry, root [1, 9]: 1.57 g/100 plantlings
Mass, dry, root, + % to control [1, 9]: 7.5%
Mass, dry, sprout [1, 9]: 0.94 g/100 plantlings
Mass, dry, sprout, + % to control [1, 9]: −2%
Mass, wet, root [1, 9]: 9.18 g/100 plantlings
Mass, wet, root, + % to control [1, 9]: 5%
Mass, wet, sprout [1, 9]: 7.04 g/100 plantlings
Mass, wet, sprout, + % to control [1, 9]: 10%
Length, root, + % to control ([1]; corn, 1·10^−9% solution): 72%
Length, sprout, + % to control ([1]; corn, 1·10^−9% solution): 15%
Mass, dry, root, + % to control ([1]; corn, 1·10^−9% solution): 38%
Mass, dry, sprout, + % to control ([1]; corn, 1·10^−9% solution): 32%
Mass, wet, root, + % to control ([1]; corn, 1·10^−9% solution): 42%
Mass, wet, sprout, + % to control ([1]; corn, 1·10^−9% solution): 61%
increase of germinating power of the roots [1, 10]: 21%-72%
sprout length changes [1, 10]: −15% to +15%
plant viability ([2]; field, seed treatment plus additional spraying during spring tillering and earing phases): up to 61%
yield of winter wheat ([2]; field, seeds treated at 1·10^−7% and plants sprayed with 1·10^−8%, control 21.7 dt/ha): 30.7 dt/ha
plant viability ([2]; winter wheat Kazan 560, field, pre-sowing seed treatment, control 41%): up to 55%
germination rate (field) ([2]; winter wheat Kazan 560, field, pre-sowing seed treatment, control 67%): up to 70%
Field germination, % ([2]; seed treatment 1 · 10^−7%): 70%
Grain mass from the main ear ([2]; seed treatment 1 · 10^−7%): 1.1 g
Number of grains in an ear ([2]; seed treatment 1 · 10^−7%): 31
Viability, % ([2]; seed treatment 1 · 10^−7%): 55%
Yield, dt/ha ([2]; seed treatment 1 · 10^−7%): 29.2 dt/ha
Field germination, % [2, 11]: 70%
Grain mass from the main ear [2, 11]: 1.1 g
Number of grains in an ear [2, 11]: 32
Viability, % [2, 11]: 61%
Yield, dt/ha [2, 11]: 30.7 dt/ha
